Source: patent USRE48461E1, “Modulation of androgen receptor expression” (Ionis Pharmaceuticals, Inc., priority 2012, dated 2021)
Oligonucleotides are written 5' to 3', each unit as a sugar letter and its base; * is a phosphorothioate linkage, no mark a phosphodiester; rarer units and linkages stand in square brackets, end groups in braces. Plain capitals give the bases only. e = 2'-O-(2-methoxyethyl) (MOE); k = constrained ethyl (cEt); [5mC] = 5-methylcytosine; d = 2'-deoxy (DNA)

Columns and labels:
AR mRNA [1] = assay: Antisense inhibition of human AR in HuVEC cells, single concentration (electroporation, qRT-PCR RTS3559); type: cell-based
Procedure, shortened: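 HuVEC cells electroporated with antisense oligonucleotides at a single concentration. AR mRNA quantified by qRT-PCR using human primer-probe set RTS3559 and normalised to total RNA content by RIBOGREEN.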

AR mRNA [2] = assay: Dose-dependent antisense inhibition of human AR in HuVEC cells (electroporation, qRT-PCR RTS3559, IC50); type: cell-based; conditions: HuVEC
Procedure, shortened: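 HuVEC cells dosed with antisense oligonucleotides by electroporation and treated approximately 16 hours. AR mRNA quantified by real-time qPCR with primer probe set RTS3559 and normalised to total RNA by RIBOGREEN; IC50 from dose-response.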

AR mRNA [3] = assay: AR mRNA in LnCaP cells by free uptake (hAR_LTS00943); type: cell-based, human; conditions: 24 hrs
Description: Cells were plated at a concentration of 4,000 cells/well in 96-well plates. ISIS oligonucleotides, specified in Table 68, were added individually at 0.02 μM, 0.10 μM, 0.50 μM, 2.50 μM, or 10.00 μM. After an incubation period of 24 hrs, mRNA levels were measured using primer probe set hAR_LTS00943.

[4] = Table 20, 500 nM oligonucleotide, electroporation, approximately 24 hours, relative to untreated control
[5] = Table 32, electroporation, approximately 16 hours
[6] = Table 36, electroporation, approximately 16 hours
[7] = Table 31, electroporation, approximately 16 hours
[8] = Table 30, electroporation, approximately 16 hours
[9] = Table 33, electroporation, approximately 16 hours

## 583880 (kT*kT*kT*dG*dG*dT*dG*dT*dA*dA*d[5mC]*d[5mC]*dT*k[5mC]*k[5mC]*k[5mC]; antisense) [compound 583880]
AR mRNA [1]; [4]
  % inhibition: 39%
AR mRNA [2]; [5]
  percent inhibition of AR, 46.9 nM: 13%
  percent inhibition of AR, 187.5 nM: 52%
  percent inhibition of AR, 750.0 nM: 78%
  percent inhibition of AR, 3000.0 nM: 92%
  IC50: 220 nM

## 584168 (k[5mC]*kT*kG*dA*dT*dT*dA*dG*d[5mC]*dT*dA*dT*dG*kA*k[5mC]*k[5mC]; antisense) [compound 584168]
AR mRNA [1]; Table 24, 1,000 nM oligonucleotide, electroporation, approximately 24 hours, relative to untreated control
  % inhibition: 70%
AR mRNA [2]; [6]
  percent inhibition of AR, 46.9 nM: 5%
  percent inhibition of AR, 187.5 nM: 32%
  percent inhibition of AR, 750.0 nM: 70%
  percent inhibition of AR, 3000.0 nM: 91%
  IC50: 320 nM

## 583790 (antisense kG*kT*kT*dG*d[5mC]*dA*dT*dG*dG*dT*dG*d[5mC]*dT*kG*kG*k[5mC]) [compound 583790]
AR mRNA [1]; Table 19, 500 nM oligonucleotide, electroporation, approximately 24 hours, relative to untreated control
  % inhibition: 39%
AR mRNA [2]; [7]
  percent inhibition of AR, 46.9 nM: 17%
  percent inhibition of AR, 187.5 nM: 42%
  percent inhibition of AR, 750.0 nM: 65%
  percent inhibition of AR, 3000.0 nM: 81%
  IC50: 320 nM

## 579667 (antisense eT*kT*kG*eA*eT*kT*kT*dA*dA*dT*dG*dG*dT*dT*kG*k[5mC]) [compound 579667]
AR mRNA [3]; 0.02 μM
  Percent inhibition of AR mRNA: 0%
AR mRNA [3]; 0.1 μM
  Percent inhibition of AR mRNA: 0%
AR mRNA [3]; 0.5 μM
  Percent inhibition of AR mRNA: 8%
AR mRNA [3]; 10 μM
  Percent inhibition of AR mRNA: 40%
AR mRNA [2]; 62.5 nM, ~16 h, Table 10
  percent inhibition of AR: 30%
AR mRNA [2]; 125.0 nM, ~16 h, Table 10
  percent inhibition of AR: 29%
AR mRNA [2]; 500.0 nM, ~16 h, Table 10
  percent inhibition of AR: 36%
AR mRNA [2]; 1000.0 nM, ~16 h, Table 10
  percent inhibition of AR: 76%
AR mRNA [2]; ~16 h, Table 10
  IC50: 411 nM

## 583728 (antisense kG*k[5mC]*kT*d[5mC]*dT*dG*dG*dA*dA*d[5mC]*dA*dG*dA*kT*kT*k[5mC]) [compound 583728]
AR mRNA [1]; 500 nM ASO, ~24 h, Table 18
  % inhibition: 45%
AR mRNA [2]; [8]
  percent inhibition of AR, 46.9 nM: 9%
  percent inhibition of AR, 187.5 nM: 48%
  percent inhibition of AR, 750.0 nM: 67%
  percent inhibition of AR, 3000.0 nM: 70%
  IC50: 400 nM

## 583834 (kA*kG*k[5mC]*dT*dG*dT*dT*d[5mC]*d[5mC]*d[5mC]*d[5mC]*dT*dG*kG*kA*k[5mC]; antisense) [compound 583834]
AR mRNA [1]; [4]
  % inhibition: 52%
AR mRNA [2]; [5]
  percent inhibition of AR, 46.9 nM: 34%
  percent inhibition of AR, 187.5 nM: 54%
  percent inhibition of AR, 750.0 nM: 73%
  percent inhibition of AR, 3000.0 nM: 84%
  IC50: 130 nM

## 583692 (antisense kG*kT*kG*dA*dT*dG*dA*dT*dG*d[5mC]*dG*dG*dT*kA*kG*kT) [compound 583692]
AR mRNA [1]; 500 nM ASO, ~24 h, Table 18
  % inhibition: 41%
AR mRNA [2]; [8]
  percent inhibition of AR, 46.9 nM: 8%
  percent inhibition of AR, 187.5 nM: 47%
  percent inhibition of AR, 750.0 nM: 61%
  percent inhibition of AR, 3000.0 nM: 71%
  IC50: 440 nM

## 583862 (kG*k[5mC]*kT*d[5mC]*dT*dT*dG*d[5mC]*d[5mC]*dT*dG*d[5mC]*dG*k[5mC]*kT*kG; antisense) [compound 583862]
AR mRNA [1]; [4]
  % inhibition: 32%
AR mRNA [2]; [9]
  percent inhibition of AR, 46.9 nM: 15%
  percent inhibition of AR, 187.5 nM: 37%
  percent inhibition of AR, 750.0 nM: 64%
  percent inhibition of AR, 3000.0 nM: 79%
  IC50: 410 nM
